# From PMC12495306 (RSC Medicinal Chemistry, 2025)
# Legend:
# ARα2A = biological target: T1, ARα2A (Homo sapiens, UniProt P08913); test: ARα2A radioligand; assay type: binding; details: ARα2A binding Ki, competition with 3H-Rauwolscinein; concentration response
# T1 sequence (P08913 1-465): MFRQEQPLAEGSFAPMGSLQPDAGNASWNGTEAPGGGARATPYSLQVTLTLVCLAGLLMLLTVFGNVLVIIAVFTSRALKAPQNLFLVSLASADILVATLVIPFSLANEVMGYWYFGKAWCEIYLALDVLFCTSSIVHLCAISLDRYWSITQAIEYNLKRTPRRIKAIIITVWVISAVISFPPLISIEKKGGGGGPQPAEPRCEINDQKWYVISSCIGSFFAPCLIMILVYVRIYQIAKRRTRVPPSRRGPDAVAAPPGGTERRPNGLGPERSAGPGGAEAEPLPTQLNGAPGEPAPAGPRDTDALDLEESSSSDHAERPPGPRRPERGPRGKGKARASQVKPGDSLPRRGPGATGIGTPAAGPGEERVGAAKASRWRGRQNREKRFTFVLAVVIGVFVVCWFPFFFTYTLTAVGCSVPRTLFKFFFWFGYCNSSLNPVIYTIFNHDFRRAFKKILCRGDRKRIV
# HEK293 cells = test: Cell viability / cytotoxicity assay; assay type: cell-based, human; details: CellTiter-Glo, 18 h
# ARα2C = biological target: T2, ARα2C (Homo sapiens, UniProt P18825); test: ARα2C radioligand; assay type: binding
# T2 sequence (P18825 1-462): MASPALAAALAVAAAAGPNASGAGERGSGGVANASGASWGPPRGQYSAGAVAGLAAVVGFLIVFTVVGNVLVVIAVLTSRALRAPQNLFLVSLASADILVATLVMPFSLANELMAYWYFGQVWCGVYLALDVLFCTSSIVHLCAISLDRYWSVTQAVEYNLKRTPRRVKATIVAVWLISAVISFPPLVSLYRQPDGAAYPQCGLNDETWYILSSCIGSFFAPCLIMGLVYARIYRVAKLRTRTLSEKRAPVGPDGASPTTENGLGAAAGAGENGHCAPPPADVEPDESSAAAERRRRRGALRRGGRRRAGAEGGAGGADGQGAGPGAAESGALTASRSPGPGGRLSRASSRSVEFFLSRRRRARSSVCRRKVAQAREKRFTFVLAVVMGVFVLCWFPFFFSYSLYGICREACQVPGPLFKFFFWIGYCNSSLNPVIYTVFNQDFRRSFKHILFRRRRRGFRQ
# ARα2B = biological target: T3, ARα2B (Homo sapiens, UniProt P18089); test: ARα2B radioligand; assay type: binding; details: for inhibition at 10 µM: read-out: ARα2B binding (% inhibition at 10 μM)
# T3 sequence (P18089 1-450): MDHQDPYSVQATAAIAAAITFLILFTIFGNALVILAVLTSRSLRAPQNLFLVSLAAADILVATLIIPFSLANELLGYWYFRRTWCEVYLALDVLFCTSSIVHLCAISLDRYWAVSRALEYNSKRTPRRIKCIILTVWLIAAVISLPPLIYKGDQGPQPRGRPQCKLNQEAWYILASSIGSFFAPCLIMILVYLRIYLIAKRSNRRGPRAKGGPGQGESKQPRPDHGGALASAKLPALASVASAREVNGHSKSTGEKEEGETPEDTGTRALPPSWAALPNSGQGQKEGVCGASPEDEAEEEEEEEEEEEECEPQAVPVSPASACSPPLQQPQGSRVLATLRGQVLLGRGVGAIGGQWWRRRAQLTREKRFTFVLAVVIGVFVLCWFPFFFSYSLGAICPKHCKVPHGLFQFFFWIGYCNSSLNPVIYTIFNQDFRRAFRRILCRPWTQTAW
# [1] = Aqueous solubility, shake flask method; assay type: physicochemical; details: pH 7.4, PBS, 24 h
compound,measurement,setting,value
"COc1ccc(Nc2ccc3c(c2)C(c2ccccc2F)=NC(C)C(=O)N3)cc1 (stereo not shown) [Compound 4, 5-(2-Fluorophenyl)-7-(4-methoxyanilino)-3-methyl-1,3-dihydro-2H-1,4-benzodiazepin-2-one]",Ki,ARα2A,2070 nM
same,Cytotoxicity LD50,HEK293 cells,87 ± 32 µM
same,Ki,ARα2C,2080 nM
same,inhibition at 10 µM,ARα2B,41%
"CC1N=C(c2ccccc2F)c2cc(Nc3ccc(O)cc3)ccc2NC1=O (stereo not shown) [Compound 10, 5-(2-Fluorophenyl)-7-((4-hydroxyphenyl)amino)-3-methyl-1,3-dihydro-2H-1,4-benzodiazepin-2-one]",Cytotoxicity LD50,HEK293 cells,135 ± 26 µM
same,Ki,ARα2B,4180 nM
same,inhibition at 10 µM,ARα2B,52%
same,Aqueous solubility,[1],197.9 ± 4.04 µM
"COC(=O)c1ccc(Nc2ccc3c(c2)C(c2ccccc2F)=NC(C)C(=O)N3)cc1 (stereo not shown) [Compound 11, 5-(2-Fluorophenyl)-7-(4-methoxycarbonylanilino)-3-methyl-1,3-dihydro-2H-1,4-benzodiazepin-2-one]",Ki,ARα2A,2250 nM
same,Cytotoxicity LD50,HEK293 cells,88 ± 17 µM
same,Ki,ARα2C,1540 nM
same,inhibition at 10 µM,ARα2B,44%
"CC1N=C(c2ccccc2F)c2cc(Nc3ccccc3F)ccc2NC1=O (stereo not shown) [Compound 14, 7-(2-Fluoroanilino)-5-(2-fluorophenyl)-3-methyl-1,3-dihydro-2H-1,4-benzodiazepin-2-one]",Ki,ARα2A,2240 nM
same,Cytotoxicity LD50,HEK293 cells,90 ± 27 µM
same,Ki,ARα2C,2140 nM
same,Ki,ARα2B,1280 nM
same,inhibition at 10 µM,ARα2B,82%
same,Aqueous solubility,[1],26.0 ± 2.10 µM
"CSc1ccc(Nc2ccc3c(c2)C(c2ccccc2F)=NC(C)C(=O)N3)cc1 (stereo not shown) [Compound 7, 5-(2-Fluorophenyl)-3-methyl-7-((4-(methylthio)phenyl)amino)-1,3-dihydro-2H-1,4-benzodiazepin-2-one]",Ki,ARα2A,3300 nM
same,Cytotoxicity LD50,HEK293 cells,63 ± 12 µM
same,Ki,ARα2C,2410 nM
same,inhibition at 10 µM,ARα2B,41%
"CC1N=C(c2ccccc2F)c2cc(N(C)c3ccccc3)ccc2NC1=O (stereo not shown) [Compound 21, 5-(2-Fluorophenyl)-7-(N-methylanilino)-3-methyl-1,3-dihydro-2H-1,4-benzodiazepin-2-one]",Cytotoxicity LD50,HEK293 cells,158 ± 27 µM
same,inhibition at 10 µM,ARα2B,47%
"CC1N=C(c2ccccc2F)c2cc(N(C)C)ccc2NC1=O (stereo not shown) [Compound 27, 7-(Dimethylamino)-5-(2-fluorophenyl)-3-methyl-1,3-dihydro-2H-1,4-benzodiazepin-2-one]",Cytotoxicity LD50,HEK293 cells,>300 µM
same,inhibition at 10 µM,ARα2B,45%
"CC1N=C(c2ccccc2F)c2cc(Nc3ccc([N+](=O)[O-])cc3)ccc2NC1=O (stereo not shown) [Compound 6, 5-(2-Fluorophenyl)-3-methyl-7-(4-nitroanilino)-1,3-dihydro-2H-1,4-benzodiazepin-2-one]",Ki,ARα2A,2620 nM
same,Cytotoxicity LD50,HEK293 cells,61 ± 10 µM
same,inhibition at 10 µM,ARα2B,36%
"CC1N=C(c2ccccc2F)c2cc(Nc3ccc(C#N)cc3)ccc2NC1=O (stereo not shown) [Compound 9, 7-(4-Cyanoanilino)-5-(2-fluorophenyl)-3-methyl-1,3-dihydro-2H-1,4-benzodiazepin-2-one]",Cytotoxicity LD50,HEK293 cells,83 ± 29 µM
same,inhibition at 10 µM,ARα2B,23%
"CC1N=C(c2ccccc2F)c2cc(Nc3ccc(C(F)(F)F)cc3)ccc2NC1=O (stereo not shown) [Compound 12, 5-(2-Fluorophenyl)-7-(4-trifluoromethylanilino)-3-methyl-1,3-dihydro-2H-1,4-benzodiazepin-2-one]",Ki,ARα2A,2590 nM
same,Cytotoxicity LD50,HEK293 cells,>150 µM
same,inhibition at 10 µM,ARα2B,38%
"Cc1ccc(Nc2ccc3c(c2)C(c2ccccc2F)=NC(C)C(=O)N3)c(C)c1 (stereo not shown) [Compound 20, 5-(2-Fluorophenyl)-7-(2,4-dimethylanilino)-3-methyl-1,3-dihydro-2H-1,4-benzodiazepin-2-one]",Cytotoxicity LD50,HEK293 cells,88 ± 22 µM
same,inhibition at 10 µM,ARα2B,33%
"CC1N=C(c2ccccc2F)c2cc(N3CCCCC3)ccc2NC1=O (stereo not shown) [Compound 23, 5-(2-Fluorophenyl)-3-methyl-7-(piperidin-1-yl)-1,3-dihydro-2H-1,4-benzodiazepin-2-one]",Cytotoxicity LD50,HEK293 cells,>300 µM
same,inhibition at 10 µM,ARα2B,61%
"CC1N=C(c2ccccc2F)c2cc(N3CCOCC3)ccc2NC1=O (stereo not shown) [Compound 22, 5-(2-Fluorophenyl)-3-methyl-7-(morpholin-4-yl)-1,3-dihydro-2H-1,4-benzodiazepin-2-one]",Cytotoxicity LD50,HEK293 cells,>300 µM
same,inhibition at 10 µM,ARα2B,27%
"CC1N=C(c2ccccc2F)c2cc(NCc3ccccc3)ccc2NC1=O (stereo not shown) [Compound 24, 7-(Benzylamino)-5-(2-fluorophenyl)-3-methyl-1,3-dihydro-2H-1,4-benzodiazepin-2-one]",Cytotoxicity LD50,HEK293 cells,>150 µM
same,inhibition at 10 µM,ARα2B,46%
"Cc1cccc(Nc2ccc3c(c2)C(c2ccccc2F)=NC(C)C(=O)N3)c1 (stereo not shown) [Compound 18, 5-(2-Fluorophenyl)-3-methyl-7-(3-methylanilino)-1,3-dihydro-2H-1,4-benzodiazepin-2-one]",Ki,ARα2A,2080 nM
same,Cytotoxicity LD50,HEK293 cells,109 ± 12 µM
same,Ki,ARα2C,1180 nM
same,Ki,ARα2B,1670 nM
same,inhibition at 10 µM,ARα2B,87%
"CCc1ccccc1Nc1ccc2c(c1)C(c1ccccc1F)=NC(C)C(=O)N2 (stereo not shown) [Compound 16, 7-(2-Ethylanilino)-5-(2-fluorophenyl)-3-methyl-1,3-dihydro-2H-1,4-benzodiazepin-2-one]",Cytotoxicity LD50,HEK293 cells,>300 µM
same,inhibition at 10 µM,ARα2B,-2%
"C[C@H]1N=C(c2ccccc2F)c2cc(Br)ccc2NC1=O [Compound 1, (3R)-7-Bromo-5-(2-fluorophenyl)-3-methyl-1,3-dihydro-2H-1,4-benzodiazepin-2-one]",Cytotoxicity LD50,HEK293 cells,>300 µM
same,inhibition at 10 µM,ARα2B,-6%
"CC1N=C(c2ccccc2F)c2cc(Nc3ccc(S(C)(=O)=O)cc3)ccc2NC1=O (stereo not shown) [Compound 8, 5-(2-Fluorophenyl)-7-(4-methanesulfonylanilino)-3-methyl-1,3-dihydro-2H-1,4-benzodiazepin-2-one]",Cytotoxicity LD50,HEK293 cells,>150 µM
same,inhibition at 10 µM,ARα2B,-5%
"CC1N=C(c2ccccc2F)c2cc(Nc3ccccc3C#N)ccc2NC1=O (stereo not shown) [Compound 13, 7-(2-Cyanoanilino)-5-(2-fluorophenyl)-3-methyl-1,3-dihydro-2H-1,4-benzodiazepin-2-one]",Cytotoxicity LD50,HEK293 cells,>150 µM
same,inhibition at 10 µM,ARα2B,29%
"Cc1ccc(Nc2ccc3c(c2)C(c2ccccc2F)=NC(C)C(=O)N3)cc1 (stereo not shown) [Compound 3, 5-(2-Fluorophenyl)-3-methyl-7-(4-methylanilino)-1,3-dihydro-2H-1,4-benzodiazepin-2-one]",Ki,ARα2A,2280 nM
same,Cytotoxicity LD50,HEK293 cells,62 ± 15 µM
same,Ki,ARα2C,2160 nM
same,Ki,ARα2B,4640 nM
same,inhibition at 10 µM,ARα2B,61%
"CC1N=C(c2ccccc2F)c2cc(Nc3cccc(C#N)c3)ccc2NC1=O (stereo not shown) [Compound 19, 7-(3-Cyanoanilino)-5-(2-fluorophenyl)-3-methyl-1,3-dihydro-2H-1,4-benzodiazepin-2-one]",Cytotoxicity LD50,HEK293 cells,165 ± 27 µM
same,Ki,ARα2B,3250 nM
same,inhibition at 10 µM,ARα2B,57%
"CC1N=C(c2ccccc2F)c2cc(Nc3ccc(Cl)cc3)ccc2NC1=O (stereo not shown) [Compound 5, 7-(4-Chloroanilino)-5-(2-fluorophenyl)-3-methyl-1,3-dihydro-2H-1,4-benzodiazepin-2-one]",Ki,ARα2A,2080 nM
same,Cytotoxicity LD50,HEK293 cells,87 ± 36 µM
same,Ki,ARα2C,1640 nM
same,Ki,ARα2B,1410 nM
same,inhibition at 10 µM,ARα2B,81%
"CC1N=C(c2ccccc2F)c2cc(NC(C)(C)C)ccc2NC1=O (stereo not shown) [Compound 25, 7-(tert-Butylamino)-5-(2-fluorophenyl)-3-methyl-1,3-dihydro-2H-1,4-benzodiazepin-2-one]",Cytotoxicity LD50,HEK293 cells,>300 µM
same,inhibition at 10 µM,ARα2B,40%
same,Aqueous solubility,[1],393.6 ± 10.40 µM
"CC1N=C(c2ccccc2F)c2cc(NC3CCCCC3)ccc2NC1=O (stereo not shown) [Compound 26, 7-(Cyclohexylamino)-5-(2-fluorophenyl)-3-methyl-1,3-dihydro-2H-1,4-benzodiazepin-2-one]",Cytotoxicity LD50,HEK293 cells,>300 µM
same,inhibition at 10 µM,ARα2B,64%
